The target in one assay is Cytochrome P450 2D6 (Homo sapiens, UniProt P10635).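 Also: CYP2D6 member of a cytochrome P450 panel assay.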
The target in the next assay is T1, Estrogen receptor (Homo sapiens, UniProt P03372).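 Also: potency for inhibiting coactivator peptide recruitment to the receptor.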
T1 sequence (P03372 whole entry): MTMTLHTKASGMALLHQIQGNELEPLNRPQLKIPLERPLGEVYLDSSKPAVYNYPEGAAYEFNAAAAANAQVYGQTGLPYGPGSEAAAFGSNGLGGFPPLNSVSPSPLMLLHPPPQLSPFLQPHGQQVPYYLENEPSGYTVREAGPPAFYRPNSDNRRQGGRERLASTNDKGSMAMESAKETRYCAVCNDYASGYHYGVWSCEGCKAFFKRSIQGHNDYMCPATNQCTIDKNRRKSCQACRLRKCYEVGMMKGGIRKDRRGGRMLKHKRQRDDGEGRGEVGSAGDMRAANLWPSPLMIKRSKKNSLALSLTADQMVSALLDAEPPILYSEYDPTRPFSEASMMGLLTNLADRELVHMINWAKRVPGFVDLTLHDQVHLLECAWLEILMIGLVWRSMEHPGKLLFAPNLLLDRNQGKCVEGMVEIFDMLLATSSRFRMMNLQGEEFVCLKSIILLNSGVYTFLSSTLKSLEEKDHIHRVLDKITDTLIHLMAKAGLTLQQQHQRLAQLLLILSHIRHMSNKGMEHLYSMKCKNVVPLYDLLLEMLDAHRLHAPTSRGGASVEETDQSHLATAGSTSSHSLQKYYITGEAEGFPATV

The target in a further assay is Cytochrome P450 2C9 (Homo sapiens, UniProt P11712).
The target in assay [1] is T2, Ubiquitin-conjugating enzyme E2 N (Homo sapiens, UniProt P61088).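 Also: Dose-response confirmation in a TR-FRET assay detecting UBC13-driven polyubiquitin chain formation, inhibition measured.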
T2 sequence (P61088 whole entry): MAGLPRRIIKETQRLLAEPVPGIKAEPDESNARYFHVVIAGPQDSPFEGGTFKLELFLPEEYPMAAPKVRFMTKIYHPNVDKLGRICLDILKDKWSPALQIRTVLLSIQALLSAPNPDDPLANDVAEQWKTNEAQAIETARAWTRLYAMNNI
It is filed as functional.

Assay [2] addresses T3, RNA-binding protein pos-1 (Caenorhabditis elegans, UniProt G5EF15).
T3 sequence (G5EF15 whole entry): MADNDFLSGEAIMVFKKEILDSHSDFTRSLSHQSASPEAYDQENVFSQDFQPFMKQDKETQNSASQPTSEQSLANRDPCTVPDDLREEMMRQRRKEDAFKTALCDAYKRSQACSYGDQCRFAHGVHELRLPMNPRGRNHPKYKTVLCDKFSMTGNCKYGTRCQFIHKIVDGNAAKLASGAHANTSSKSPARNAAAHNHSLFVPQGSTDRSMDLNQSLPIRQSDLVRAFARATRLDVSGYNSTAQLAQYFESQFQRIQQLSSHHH
Put plainly: inhibitors of POS-1/mex-3 RNA binding, dose response, biochemical, fluorescence polarization (AID 1964).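 Also: purified POS-1 fused to maltose binding protein made in E. coli; potency of compounds blocking POS-1 binding to fluorescent RNA.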 A general note: Fluorescence polarisation rises when a labelled molecule tumbles more slowly, as on binding a larger partner.

The target of assay [3] is T4, Zinc finger protein mex-5 (Caenorhabditis elegans, UniProt Q9XUB2).
T4 sequence (Q9XUB2 whole entry): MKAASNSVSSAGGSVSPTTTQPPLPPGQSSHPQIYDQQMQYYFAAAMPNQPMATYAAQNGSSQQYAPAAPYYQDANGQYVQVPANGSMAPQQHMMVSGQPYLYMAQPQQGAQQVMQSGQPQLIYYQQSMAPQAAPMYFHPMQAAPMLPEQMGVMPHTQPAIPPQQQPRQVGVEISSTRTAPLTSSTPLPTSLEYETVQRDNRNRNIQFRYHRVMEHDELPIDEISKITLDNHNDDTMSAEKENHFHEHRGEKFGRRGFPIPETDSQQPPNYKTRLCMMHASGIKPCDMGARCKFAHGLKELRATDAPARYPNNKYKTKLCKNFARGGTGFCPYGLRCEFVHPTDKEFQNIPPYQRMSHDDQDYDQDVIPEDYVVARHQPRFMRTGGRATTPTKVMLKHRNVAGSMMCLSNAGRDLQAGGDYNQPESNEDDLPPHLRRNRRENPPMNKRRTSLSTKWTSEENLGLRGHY
As to the kind of experiment: MEX-5/TCR-2 RNA interaction inhibitors, dose response, biochemical, C. elegans, fluorescence polarization (AID 1960).

The test system of the next assay is H9c2. As to the kind of experiment: cells. The format is functional, cell-based. The settings on record: Rattus norvegicus, H9c2, Myocardium.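 Also: confirmatory concentration-response retest of ultra-high-throughput screening hits for modulation of myocardial damage; cell death induced by hydrogen peroxide oxidative stress; compound pretreatment for 60 min then peroxide exposure for 2 h; potency is for protecting the cells against peroxide damage rather than for killing them.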
Assay [4] in a line: C. albicans growth with fluconazole, confirmation, fluorescence, retest (AID 2467). It is filed as functional, cell-based.
The target of a further assay is T5, Streptokinase A (Streptococcus pyogenes serotype M1, UniProt P10520).
T5 sequence (P10520 whole entry): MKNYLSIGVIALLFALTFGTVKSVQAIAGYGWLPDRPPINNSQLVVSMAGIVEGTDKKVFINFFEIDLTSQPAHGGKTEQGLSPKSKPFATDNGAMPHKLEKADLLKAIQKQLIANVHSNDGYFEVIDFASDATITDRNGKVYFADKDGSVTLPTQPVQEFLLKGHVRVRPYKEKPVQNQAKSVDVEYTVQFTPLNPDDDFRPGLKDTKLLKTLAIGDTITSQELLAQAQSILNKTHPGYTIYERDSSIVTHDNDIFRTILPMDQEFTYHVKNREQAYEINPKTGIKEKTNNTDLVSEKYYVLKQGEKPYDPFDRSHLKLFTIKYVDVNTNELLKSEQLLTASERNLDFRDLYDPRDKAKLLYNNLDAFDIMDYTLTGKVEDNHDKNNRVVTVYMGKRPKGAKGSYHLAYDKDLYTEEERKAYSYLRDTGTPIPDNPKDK
As to the kind of experiment: S. pyogenes streptokinase expression inhibitors, potency, dose response, plasminogen activation absorbance, OD405 (AID 1914).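 Also: secreted streptokinase activity via plasminogen activation per viability signal from cell pellet.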 It is filed as functional, Streptococcus pyogenes M1 GAS.

The test system of the next assay is Streptococcus. As to the kind of experiment: Group A Streptococcus viability loss, dose response, counter-screen for streptokinase expression inhibitor project, luminescence, BacTiterGlo (AID 1915).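 Also: potency for reduction of bacterial viability or growth.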 It is filed as functional, organism-based. (Counterscreens check selectivity or assay interference.)
The nature of assay [5]: NIH-3T3 fibroblast cytotoxicity, dose response, cytotoxicity control, cell-based, fluorescence, Alamar Blue, secondary assay (AID 2327).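 Also: NIH-3T3 mouse fibroblasts cultured with fluconazole at 8 µg/mL.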 The format is functional. (In general: The colour change of resazurin is a common sign of viable cells or microbes.)
The subject of assay [6] is Streptococcus sp. 'group A'. As to the kind of experiment: growth inhibition of control SK(-) GAS strain, dose response, counter-screen for streptokinase expression inhibitor project, luminescence, kanamycin, BacTiterGlo, confirmation (AID 1900). The format is functional, organism-based.
Assay [7] has as its target T6, Heat shock factor protein 1 (Mus musculus, UniProt P38532).
T6 sequence (P38532 whole entry): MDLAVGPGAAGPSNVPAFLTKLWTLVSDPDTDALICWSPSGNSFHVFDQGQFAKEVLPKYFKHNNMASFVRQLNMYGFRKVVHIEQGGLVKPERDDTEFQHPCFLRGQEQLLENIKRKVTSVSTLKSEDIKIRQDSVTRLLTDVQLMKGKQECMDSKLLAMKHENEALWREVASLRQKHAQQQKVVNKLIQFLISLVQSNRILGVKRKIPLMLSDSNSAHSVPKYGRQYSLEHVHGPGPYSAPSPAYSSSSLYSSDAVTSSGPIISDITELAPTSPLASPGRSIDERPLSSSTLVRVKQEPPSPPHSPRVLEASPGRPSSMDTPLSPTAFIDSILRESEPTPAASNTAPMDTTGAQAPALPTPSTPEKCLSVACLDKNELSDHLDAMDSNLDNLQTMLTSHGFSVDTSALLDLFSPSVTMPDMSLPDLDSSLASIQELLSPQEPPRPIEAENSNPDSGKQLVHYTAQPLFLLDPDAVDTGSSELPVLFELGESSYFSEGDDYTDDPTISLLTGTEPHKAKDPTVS
As to the kind of experiment: inhibition of MG132-induced HSE-luciferase signal, confirmation, cell-based, NIH3T3, luminescence, dose retest (AID 2382).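 Also: NIH3T3 fibroblasts with HSF1-driven luciferase reporter stressed by proteasome inhibitor MG132; luminescence from HSF1-driven luciferase expression after 8 hours of MG132 stress.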 The format is functional.

In assay [8] the target is T7, Rac GTPase-activating protein 1 (Homo sapiens, UniProt Q9H0H5).
T7 sequence (Q9H0H5 whole entry): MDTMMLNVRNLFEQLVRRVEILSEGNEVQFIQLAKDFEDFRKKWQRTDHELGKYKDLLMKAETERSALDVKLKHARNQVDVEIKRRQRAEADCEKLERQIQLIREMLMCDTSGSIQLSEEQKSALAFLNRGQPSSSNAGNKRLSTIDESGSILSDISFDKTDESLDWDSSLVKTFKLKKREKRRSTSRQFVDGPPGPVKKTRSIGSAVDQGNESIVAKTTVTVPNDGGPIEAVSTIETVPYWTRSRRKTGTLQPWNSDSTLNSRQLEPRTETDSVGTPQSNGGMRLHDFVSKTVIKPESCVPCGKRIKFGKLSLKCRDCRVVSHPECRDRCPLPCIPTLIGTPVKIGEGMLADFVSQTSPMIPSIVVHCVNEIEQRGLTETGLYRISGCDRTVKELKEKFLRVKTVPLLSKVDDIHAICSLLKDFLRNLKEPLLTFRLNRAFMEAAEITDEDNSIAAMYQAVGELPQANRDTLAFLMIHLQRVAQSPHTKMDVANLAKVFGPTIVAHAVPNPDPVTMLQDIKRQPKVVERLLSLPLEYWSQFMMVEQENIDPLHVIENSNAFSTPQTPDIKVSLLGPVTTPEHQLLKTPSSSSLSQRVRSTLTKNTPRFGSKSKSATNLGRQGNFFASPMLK
As to the kind of experiment: MgcRacGAP GTPase-activating activity inhibitors, confirmation, biochemical, ADP Hunter fluorescence, primary and confirmatory (AID 624330). The format is functional.

A further assay deals with Large T antigen (Simian virus 40, UniProt P03070). It is filed as functional, Betapolyomavirus macacae.
A short description of assay [9]: microbe, parasite or virus in culture. The format is functional. The settings on record: Mycobacterium tuberculosis.

Activity calls are given as the source filed them.

Large T antigen, sequence (P03070 whole entry): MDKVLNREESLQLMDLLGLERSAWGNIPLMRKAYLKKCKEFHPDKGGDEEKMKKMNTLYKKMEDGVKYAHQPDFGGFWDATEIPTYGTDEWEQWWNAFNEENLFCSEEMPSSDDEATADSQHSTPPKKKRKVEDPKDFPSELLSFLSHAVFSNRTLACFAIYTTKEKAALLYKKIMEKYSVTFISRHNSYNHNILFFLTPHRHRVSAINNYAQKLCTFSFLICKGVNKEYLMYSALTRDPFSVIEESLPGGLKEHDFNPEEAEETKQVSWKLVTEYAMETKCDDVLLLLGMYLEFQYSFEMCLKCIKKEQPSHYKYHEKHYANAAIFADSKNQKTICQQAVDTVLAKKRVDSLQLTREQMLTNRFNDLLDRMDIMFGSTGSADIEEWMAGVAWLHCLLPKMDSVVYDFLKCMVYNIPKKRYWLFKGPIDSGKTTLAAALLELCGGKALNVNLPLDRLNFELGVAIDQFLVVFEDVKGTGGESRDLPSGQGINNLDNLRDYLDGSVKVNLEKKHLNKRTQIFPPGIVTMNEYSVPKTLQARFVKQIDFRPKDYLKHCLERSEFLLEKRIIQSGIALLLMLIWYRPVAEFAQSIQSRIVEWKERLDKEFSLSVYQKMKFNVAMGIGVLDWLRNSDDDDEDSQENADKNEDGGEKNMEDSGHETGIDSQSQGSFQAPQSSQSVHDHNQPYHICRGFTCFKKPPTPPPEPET
Cytochrome P450 2C9, sequence (P11712 whole entry): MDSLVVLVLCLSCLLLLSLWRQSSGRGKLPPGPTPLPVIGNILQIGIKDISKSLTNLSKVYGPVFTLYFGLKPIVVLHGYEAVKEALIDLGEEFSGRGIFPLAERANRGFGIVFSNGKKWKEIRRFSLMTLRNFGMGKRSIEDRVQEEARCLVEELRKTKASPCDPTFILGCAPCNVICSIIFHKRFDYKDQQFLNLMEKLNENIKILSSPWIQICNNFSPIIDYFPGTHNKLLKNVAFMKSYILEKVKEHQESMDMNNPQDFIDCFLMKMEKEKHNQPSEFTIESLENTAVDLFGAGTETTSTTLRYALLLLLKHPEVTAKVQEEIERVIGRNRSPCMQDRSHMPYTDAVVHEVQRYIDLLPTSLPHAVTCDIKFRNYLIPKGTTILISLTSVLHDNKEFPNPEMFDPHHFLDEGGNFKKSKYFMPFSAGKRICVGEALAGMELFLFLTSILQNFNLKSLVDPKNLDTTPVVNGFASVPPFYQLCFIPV
Cytochrome P450 2D6, sequence (P10635 whole entry): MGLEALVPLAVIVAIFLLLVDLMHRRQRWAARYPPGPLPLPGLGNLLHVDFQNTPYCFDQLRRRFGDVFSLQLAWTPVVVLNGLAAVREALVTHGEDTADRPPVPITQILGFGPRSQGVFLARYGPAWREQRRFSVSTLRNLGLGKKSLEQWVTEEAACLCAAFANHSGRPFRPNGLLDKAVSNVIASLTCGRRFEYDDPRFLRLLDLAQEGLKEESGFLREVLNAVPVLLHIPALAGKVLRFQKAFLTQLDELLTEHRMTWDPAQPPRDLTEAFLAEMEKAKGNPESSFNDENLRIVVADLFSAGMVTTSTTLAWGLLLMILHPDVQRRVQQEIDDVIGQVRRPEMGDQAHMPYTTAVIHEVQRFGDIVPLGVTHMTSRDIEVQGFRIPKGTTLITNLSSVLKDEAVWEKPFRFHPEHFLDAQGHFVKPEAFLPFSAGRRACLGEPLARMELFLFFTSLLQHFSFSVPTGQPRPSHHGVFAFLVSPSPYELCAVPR

With `COc1ccc(Cn2c(N)c(C(=O)NCc3ccco3)c3nc4ccccc4nc32)cc1`, the AC50 at Cytochrome P450 2D6 is 14.1 µM (inconclusive); on Cytochrome P450 2C9, 1 µM (inconclusive). In addition, the IC50 on Estrogen receptor was 17.3 µM (active).

Regarding `NS(=O)(=O)c1ccc(CCNC(=O)C2CCN(c3ncnc4c3nc3n4CCCCC3)CC2)cc1`, the IC50 in [1] was > 20 µM (inactive). For `O=C1NC(=O)N(CCc2ccccc2)C(=O)/C1=C/NCCCn1ccnc1`, the EC50 in assay [2] and in assay [3] was > 300 µM (not active) each time. For the compound `CC1CCC2(CC1)NC(=O)N(CC(=O)c1ccc[nH]1)C2=O` (stereo unspecified), the half-inhibitory concentration (IC50) on Estrogen receptor was > 50 µM (not active). As for `C=CCOc1cccc(C2C(C(=O)c3ccco3)=C(O)C(=O)N2Cc2ccco2)c1` (stereo unspecified), the EC50 in assay [2] and in assay [3] was > 300 µM (not active) throughout. In the case of `O=C(CC1CC2CCC1C2)Nc1nc(-c2ccccn2)cs1` (stereo unspecified), the IC50 in the assay on H9c2 is > 79 µM (inactive). For the same compound, the EC50 is > 38 µM (not active) in assay [4]; > 150 µM (not active) on Streptokinase A; 13.2 µM (active) with Streptococcus; > 150 µM (inactive) in assay [5]; 4.21 µM (active) in [6].

With `CCOC(=O)C1CCCN(C(=O)CCC(=O)Nc2ccc3nc(N4CCOCC4)cc(C)c3c2)C1` (stereo unspecified), in the assay with H9c2, the IC50 is > 79 µM (inactive). For `N#Cc1c(SCC(=O)Nc2nccs2)nc2c(c1-c1ccco1)CCCC2`, the IC50 on Estrogen receptor was > 50 µM (not active). For the same compound, the EC50 in [7] was > 195 µM (not active).

Take `O=C(CCCCCn1c(=O)[nH]c2ccccc2c1=O)NCCCN1CCN(c2ccccc2F)CC1`: in assay [1], the IC50 is > 20 µM (inactive).

Turning to `C/C(=N\NC(=O)CSc1nc2ccccc2o1)c1ccc(O)cc1`, the IC50 in assay [8] is 86.9 µM (active); at Large T antigen it was 18.9 µM (active). In the case of `O=C(CSc1nnc(-c2ccco2)[nH]1)Nc1sc2c(c1C(=O)Nc1ccccc1)CCCC2`, the IC50 at Estrogen receptor is on record as 40 µM (not active). On to `CC(OC(=O)Cc1nnc(O)c2ccccc12)C(=O)Nc1ccc(F)cc1Cl` (stereo unspecified), for which, in the assay on H9c2, the IC50 is 15.4 µM (active).

With `CCOC(=O)c1nn(-c2cccc(OC)c2)c2nc(Nc3ccccc3)cc(=O)n12`, in the assay on H9c2, the IC50 was > 79 µM (inactive). Besides, the values for the EC50 (at Streptokinase A; with Streptococcus; in assay [6]) were > 150 µM (not active), 30 µM (active) and 3.12 µM (active), respectively. With `O=C(N/N=C/c1ccccn1)c1[nH]c2ccc([N+](=O)[O-])cc2c1-c1ccccc1`, the IC50 in the assay on H9c2 was > 79 µM (inactive).

Consider `CNS(=O)(=O)c1cc2c3c(cccc3c1)C(=O)NC2=O`, for which the IC50 in the assay with H9c2 was 16.9 µM (active). `Oc1ccc(C[C@H]2CNCCN2CCCCC2CCCCC2)cc1`: the CC50 in assay [9] is 13.2 µM (active). For the same compound, the IC50 in assay [1] was > 20 µM (inactive). Regarding `CCN(CC)c1ccc(N/C=C2/C(=O)NC(=O)N(c3ccc(OC)cc3)C2=O)cc1`, the figures for the EC50 in [2] and in assay [3] were 9.58 µM (inconclusive) and 6.36 µM (active), respectively. Consider `Cc1nnc(NC(=O)Cc2cccs2)s1`, for which the IC50 at Estrogen receptor is 19 µM (active). `COc1ccc(/C(O)=C/C2=NCC3c4ccccc4CCN3C2=O)cc1` (stereo unspecified): the EC50 in [2] and in [3] was > 300 µM (not active) throughout. `CC1(C)Cc2c(sc(NC(=O)c3ccc4c(c3)OCCO4)c2C(N)=O)C(C)(C)N1`: the IC50 in [1] was > 20 µM (inactive). With `CO/C(O)=C(/C=N/c1ccc(O)cc1)[N+](=O)[O-]`, the IC50 is 25.5 µM (active) in assay [8] and 62.1 µM (active) on Large T antigen. As to `Cc1ccc(NC(=O)CCCc2nc(O)c3ccccc3n2)c(Cl)c1`, the IC50 with H9c2 was 25.1 µM (active).

Take `O=C(CCc1nc(O)c2ccccc2n1)NNC(=O)c1ccc(F)cc1`: the IC50 in the assay on H9c2 was > 79 µM (inactive).

What is called AC50 is the midpoint of the concentration-response curve, whichever way the signal moves. By IC50 is commonly meant the point on the concentration scale where inhibition reaches its midpoint. What is called EC50 is the concentration needed to bring the measured effect to its halfway point.

(Values after ChEMBL document CHEMBL1201862, “PubChem BioAssay data set” (2004).)
